Laboratory results: patent US11617741B1, “Method for inhibiting growth of bacteria” (priority 2021, dated 2023)
Values after ≈ are worked out from the molar mass of the structure shown. Marks after values point to notes of the source that are not given here.

Columns and labels:
[1] = system: PKZRSA1 (PKZ18-22-resistant MRSA); assay: MICs against PKZ18-22-resistant mutant compared to WT MRSA; type: cell-based, Staphylococcus aureus
Method: (§1) The 96-well plate was organized as follows. Media (100 μl) were added to all wells.

[2] = system: planktonic growth of Staphylococcus
Method: An overnight culture of S. aureus (ATCC 29213) was diluted to 1×10^7 cells/mL in tryptic soy broth (TSB) supplemented with 10% human plasma (Innovative Research, Novi, Mich. USA) and added to the wells of an MBEC™-HTP Assay Biofilm Innoculator (Innovotech, Edmonton, AB, Canada). The plate was incubated overnight at 37° C. and shaken at 125 rpm. […] Control wells were without a COMPOUND OF Formula I. The treatment plate was incubated for 24 h at 37° C. after which the lid was removed, rinsed with PBS, and placed in a new 96-well plate containing TSB. The biofilm was removed from the assay lid into the recovery plate wells by sonication, a new plate cover was added, and the viability of the biofilm was determined after 24 h of incubation at 37° C. by reading the OD at 625 nm. Three independent experiments were conducted. Concentrations of interest were followed up with colony forming unit (CFU) recovery and scanning electron microscopy analysis. After conclusion of the MBEC assay, the minimum bactericidal concentration (MBC) was determined. The MBC is the lowest concentration of an antibacterial agent required to kill a particular bacterium. The peg lid from the MBEC assay was removed from the challenge plate and 20 μL of medium from each well of the challenge plate was removed and added to a new sterile 96-well plate filled with 180 μL TSB. […]

[3] = system: S. aureus (ATCC 29213) biofilm; assay: MBEC-HTP biofilm model, single agents, CFU recovery; settings: range of concentrations up to 1.024 mg/mL
Method: An overnight culture of S. aureus (ATCC 29213) was diluted to 1×10^7 cells/mL in tryptic soy broth (TSB) supplemented with 10% human plasma (Innovative Research, Novi, Mich. USA) and added to the wells of an MBEC™-HTP Assay Biofilm Innoculator (Innovotech, Edmonton, AB, Canada). The plate was incubated overnight at 37° C. and shaken at 125 rpm. […] Control wells were without a COMPOUND OF Formula I. The treatment plate was incubated for 24 h at 37° C. after which the lid was removed, rinsed with PBS, and placed in a new 96-well plate containing TSB. The biofilm was removed from the assay lid into the recovery plate wells by sonication, a new plate cover was added, and the viability of the biofilm was determined after 24 h of incubation at 37° C. by reading the OD at 625 nm. Three independent experiments were conducted. Concentrations of interest were followed up with colony forming unit (CFU) recovery and scanning electron microscopy analysis. After conclusion of the MBEC assay, the minimum bactericidal concentration (MBC) was determined. […]
After rinsing in PBS, designated pegs were snapped off the lid using sterile tweezers and placed in 1.5 mL Eppendorf tubes containing 200 μL PBS. […] The plates were then imaged and colonies counted on a ColonyDoc-It™ Imaging station (UVP, Analytik Jena, Beverly, Mass., USA).

[4] = system: S. aureus N315 (MRSA isolate); assay: Minimum inhibitory and bactericidal concentration determination; type: cell-based, Staphylococcus aureus
Method: as §1

E. coli = assay: Minimum inhibitory and bactericidal concentration determination, Gram-negative control; type: cell-based, Escherichia coli
Method: as §1

B. subtilis 168 [5] = assay: Minimum inhibitory concentration determination; type: cell-based, Bacillus subtilis
Method: as §1

[6] = target: Bacillus subtilis glyQS T-box; assay: Binding to chemically synthesized truncated stem I construct; settings: truncated stem I construct of glyQS T-box
[7] = system: B. subtilis glyQS Stem I specifier loop; assay: UV-monitored thermodynamic stability measurements of stem I constructs; type: binding, Bacillus subtilis
Method: Thermodynamic parameters were derived from four UV-monitored destabilizations and four renaturations of chemically synthesized wild-type and mutant truncated B. subtilis glyQS Stem I specifier loops in the absence and presence of PKZ18 (10 mM Na2HPO4 and 10 mM KH2PO4; final pH 6.8). The absorbance was collected at 260 nm and was performed using a Varian Cary 3 UV-visible spectrophotometer equipped with a Peltier temperature control accessory. The temperature was increased at a rate of 1° C. per minute from 5 to 85° C. Absorbance data at 260 nm were collected as a function of temperature at a rate of four data points per minute. All experiments were performed simultaneously with a control cell containing buffer only. The error calculated is the error of the mean.

S. aureus 4220 = system: S. aureus 4220
Method: MICs were determined essentially as previously described (Frohlich KM, Weintraub SF, Bell JT, Todd GC, Väre VYP, Schneider R, Kloos ZA, Tabe ES, Cantara WA, Stark CJ, Onwuanaibe UJ, Duffy BC, Basanta-Sanchez M, Kitchen DB, McDonough KA, Agris PF. 2019. Discovery of small-molecule antibiotics against a unique tRNA-mediated regulation of transcription in Gram-positive bacteria. ChemMedChem 14:758-769.). In short, cultures were grown overnight in the appropriate media, diluted to A620 of 0.1, grown for 3 hours, and again diluted to A620 of 0.1. Cultures were then diluted 10-fold, of which 5 μl were added to each well of the 96-well plate used for the experiment except the media control wells. The initial well inoculum was 7.5×10^5 bacteria for S. aureus and 2.5×10^5 bacteria for B. subtilis (bacterial numbers were measured by OD). The 96-well plate was organized as follows. Media (100 μl) were added to all wells. Stock solutions (100 μi) containing 2 times the highest concentration of antibiotics to be tested were loaded to column 1, with two technical repeats per drug. […] The following controls were included: vehicle control (DMSO, chloroform, ethanol, etc.), cells in plain media, and media control (no cells). The initial optical density (A620) of the 96-well plate was determined, the plate was grown for 16 to 24 hours, and at that time, the final optical densities (A620) were read. The initial reading was subtracted from the final reading, and the technical replicates were averaged. MICs of PKZ18 and analogs were compared to clinically used antibiotics such as gentamicin.

S. aureus N315 (MRSA) = assay: Antibiotic resistance frequency (fluctuation assay); type: cell-based, Staphylococcus aureus; settings: MRSA
From the text: Gentamicin on BHI agar was used as a control.

[8] = system: J774.16 murine macrophages; assay: Trypan blue cell viability counting; type: cell-based; settings: 48 hours
Method: J774.16 cells were grown in J7 medium from a fresh passage in a 1:4 dilution of 70 to 80% confluent cells. The cells were allowed to adhere in 6-well plates overnight. The medium was replaced, and drugs were added to desired concentrations in a total volume of 5 ml/well. A media control, untreated control, a killing control of Triton X-100, and a vehicle control were always included. After 48 hours treatment, medium was removed, and fresh media and Trypan blue were added 1:1 in a final volume of 400 μl. Cells, 100 to 200, from two areas of each well were counted and the data averaged and normalized against untreated cells. The vehicle control served as the 0.0-μg/ml value. At least three biological replicates were included for each drug at each concentration.

[9] = target: Bacillus subtilis tyrS T-box; assay: Binding to chemically synthesized truncated stem I construct; settings: truncated stem I construct of tyrS T-box
[10] = system: J774.16 murine macrophages; assay: alamarBlue cell redox activity; type: cell-based; settings: for cellular redox activity: 64 μg/ml
Method: (§2) alamarBlue was purchased (Thermo Scientific) and used according to the manufacturer's directions. In short, 50,000 cells of either A549 or J774.16 were added into a 96-well plate in 200 μl and left to adhere overnight. As a control, we used a 96-well plate with the desired drugs at 2× the final concentrations in 160 μl without adding cells. The cells' medium was removed, and 100 μl fresh medium was added, followed by 100 μl of 2× drug from the corresponding wells in the drug plate. Media were added to the drug plate to reduce the concentrations to 1×, and the cells were incubated at 37° C. for 48 or 72 hours. alamarBlue was added at 10 μl per 100 μl, and the fluorescence of both plates at 590 nm was read after overnight incubation. The drug plate fluorescence was subtracted from the cells' plate respective values, and the data were normalized to untreated cells' reading. All plates included a vehicle control used as the 0-μg/ml value for each drug tested. All concentrations were tested in triplicate and included at least three biological replicates. A media control, untreated control, a killing control, and a vehicle control were always included. The cytotoxicity of synergistic or additive MICs of PKZ18 analogs and a common antibiotic (co-MIC) on eukaryotic cells was tested on A549 cells as above, but the two plates were set up identically to the checkerboard assay so that the final concentrations tested corresponded to those tested against MRSA.

[11] = system: A549 human lung epithelial cells; assay: alamarBlue cell redox activity; type: cell-based; settings: 128 μg/ml, 48 hours
Method: as §2

glyQS T-box = assay: qRT-PCR transcriptional read-through of T-box-regulated glyQS (confirmation of inhibition of T-box mechanism); type: cell-based, Bacillus subtilis 1A5; settings: confirmation of inhibition of T-box mechanism from qRT-PCR assay
From the text: Sample preparation of RNA and cDNA.

B. subtilis 168 [12] = system: B. subtilis 168
Method: Gentamicin on BHI agar was used as a control. In short, MRSA and B. subtilis were grown overnight in BHI, and 3-hour day cultures at the optical density of A620 of 0.1 were started for both organisms. The optical density after 3 hours of growth was measured; cultures were then pelleted and resuspended to give 10^11 CFU/ml by optical density. CFU of 10^11 per OD were plated in total; 100 μl of the cells were then plated on BHI agar containing either 128 μg/m1PKZ18 or 64 μg/m1PKZ18-22. Serial dilutions of the cells were plated on plain BHI agar in order to calculate the CFU/ml, which was calculated as the number of colonies found on the plates divided by the total number of bacteria plated. CFU means colony forming units, a measure of live bacteria.

[13] = similarly sized construct with gly codon but lacking the specifier loop
[14] = wild-type truncated glyQS stem I with the specifier loop

Compound: CN[C@H](CC(C)C)C(=O)N[C@H]1C(=O)N[C@@H](CC(N)=O)C(=O)N[C@H]2C(=O)N[C@H]3C(=O)N[C@H](C(=O)N[C@H](C(=O)O)c4cc(O)cc(O)c4-c4cc3ccc4O)[C@H](O)c3ccc(c(Cl)c3)Oc3cc2cc(c3O[C@@H]2O[C@H](CO)[C@@H](O)[C@H](O)[C@H]2O[C@H]2C[C@](C)(N)[C@H](O)[C@H](C)O2)Oc2ccc(cc2Cl)[C@H]1O [vancomycin]
- fold increase in MIC against PKZRSA1 compared to WT [1]: 2 fold
- planktonic growth over a range of concentrations [2]: no growth
- MBEC efficacy at highest concentration [3]: not effective

Compound: Cc1sc(NC(=O)C2C3CCC(C3)C2C(=O)O)nc1-c1ccc(C(C)C)cc1 (centres unmarked) [PKZ18-00]
- MIC S. aureus N315 ([4]; Table 2): 64 µg/mL (≈ 161 µM)
- MBC S. aureus N315 ([4]; Table 2, value in parentheses): > 256 µg/mL
- MIC E. coli (E. coli): > 256 µg/mL
- MBC E. coli (E. coli; value in parentheses): > 256 µg/mL
- fold lower MIC in minimal versus rich media (B. subtilis 168 [5]; B. subtilis 168): 8 fold
- MIC against B. subtilis 168 in minimal media (B. subtilis 168 [5]; minimal media): 8 µg/mL (≈ 20.1 µM)
- MIC against B. subtilis 168 in rich media (B. subtilis 168 [5]; rich media): 64 µg/mL (≈ 161 µM)
- dissociation constant [6]: low micromolar
- change in melting temperature ΔTm [7, 13]: −0.33
- free energy ΔΔG [7, 13]: +0.22
- change in melting temperature ΔTm [7, 14]: −18.52 °C
- free energy ΔΔG [7, 14]: +3.41 kcal mol^−1
- fold lower MIC in minimal versus rich media (S. aureus 4220; S. aureus 4220): 4 fold
- MIC against S. aureus in minimal media (S. aureus 4220; S. aureus 4220, minimal media): 16^a μg/ml
- MIC against S. aureus in rich media (S. aureus 4220; S. aureus 4220, rich media): 64^a μg/ml
- resistant colonies (S. aureus N315 (MRSA)): No PKZ18-resistant colonies were found
- cell viability ([8]; 64 μg/ml): 76%
- macrophage viability ([8]; 128 μg/ml): 25%
- dissociation constant [9]: low micromolar
- cellular redox activity ([10]; 48 hours): increased
- cellular redox activity ([10]; 72 hours): decreased
- redox activity ([10]; 128 μg/ml, 48 hours): near-total reduction
- redox activity [11]: near-total reduction
- T-Box targeting (glyQS T-box; Table 1): Yes
- T-Box targeting (glyQS T-box; Table 2): Yes
- resistant colonies (B. subtilis 168 [12]): did not generate resistant colonies
